The record followed here is US6376526B1, “Triazole antifungal agents” (Pfizer Inc., priority 1996, dated 2002).

The test system of one series is Candida albicans. As to the kind of experiment: in vivo activity against acute systemic candidosis in immune-normal mice. Conditions: dose protecting 50% of mice on day 2 post-infection; mice infected i.v. with Candida albicans; oral dosing 1, 4 and 24 hours post-infection. The source says: The in vivo evaluation of the compounds can be carried out at a series of dose levels by intraperitoneal or intravenous injection, or by oral administration, to mice or rats which are inoculated with, e.g. a strain of Candida albicans, Aspergillus fumigatus or Cryptococcus neoformans. Activity may be based on the number of survivors from a treated group of mice after the death of an untreated group of mice.
For Candida spp. infection models the dose level at which the compound provides 50% protection against the lethal effect of the infection (PD50) is also assessed.
The Table below illustrates the in vivo activity against acute systemic candidosis in immune-normal mice for a selection of the compounds of the invention.
Mice were infected intravenously with Candida albicans in order to establish a systemic infection (all untreated control mice died by 2 days post-infection). Compound efficacy was assessed on the basis of survival after oral dosing (0.1-5 mg/kg; 1, 4 and 24 hours post-infection) and was measured as the dose protecting 50% of mice on day 2 post-infection.

A short description of series [1]: 7-day toxicity study in rats. Conditions: 30 mg/kg p.o., o.d., 7 days. The format is in vivo.

SMILES strings stand for the structures.

Regarding `C[C@@H](c1ccc(/C=C/n2ccnc2)cc1)[C@](O)(Cn1cncn1)c1ccc(F)cc1F` (relative stereo) [Example 5, Trans-(2R,3S/2S,3R)-1-(1,2,4-triazol-1-yl)-2-(2,4-difluorophenyl)-3-{4-[2-(imidazol-1-yl)ethenyl]phenyl}butan-2-ol], the PD50 in the series on Candida albicans was 0.18 mg/kg.

In the series on Candida albicans, `C[C@@H](c1ccc(/C=C/C(C)(C)O)cn1)[C@](O)(Cn1cncn1)c1ccc(F)cc1F` (relative stereo) [Example 9, Trans-(2R,3S/2S,3R)-1-(1,2,4-triazol-1-yl)-2-(2,4-difluorophenyl)-3-[5-{3-hydroxy-3-methylbut-1-en-1-yl}pyrid-2-yl]butan-2-ol] yielded a PD50 of 0.18 mg/kg.

`C[C@@H](c1ccc(/C=C/c2c[nH]nn2)cn1)[C@](O)(Cn1cncn1)c1ccc(F)cc1F` (relative stereo) [Example 10, Trans-(2R,3S/2S,3R)-1-(1,2,4-triazol-1-yl)-2-(2,4-difluorophenyl)-3-{5-[2-(1,2,3-triazol-4-yl)ethenyl]pyrid-2-yl}butan-2-ol] registered a PD50 in the series with Candida albicans of 0.32 mg/kg.

Consider `C[C@@H](c1ccc(/C=C/c2ccnn2C)cc1)[C@](O)(Cn1cncn1)c1ccc(F)cc1F` [Example 1, Trans-(2R,3S)-1-(1,2,4-triazol-1-yl)-2-(2,4-difluorophenyl)-3-{4-[2-(1methylpyrazol-5-yl)ethenyl]phenyl}butan-2-ol], for which, in series [1], the “adverse effects in 7-day toxicity study” value is “no adverse effects”. Moreover, in the series on Candida albicans, the PD50 is under 0.10 mg/kg.
